Laboratory results as given in PMC10017518, “Structural basis for bacterial energy extraction from atmospheric hydrogen” (Nature, 2023).
One block for each molecule: values may come before it.

Assays:
Huc = biological target: T1, Huc (Mycolicibacterium smegmatis, UniProt A0QUM6+A0QUM7); test: H2 electrode and gas chromatography of H2 consumption; assay type: biochemical; details: H2 as donor, 50 mM Tris, 150 mM NaCl, pH 8.0
T1 construct: gene hybA; native host purification, chromosomal N-terminal 2×StrepII tag on HucS, tag kept; 833 kDa oligomer of four HucS2L2 lobes on a HucM tetramer; HucL ~58, HucS ~39, HucM ~18 kDa; with Group 2a [NiFe] hydrogenase large subunit HucL; Huc scaffold and stalk protein HucM
T1 sequence (A0QUM6 2-323): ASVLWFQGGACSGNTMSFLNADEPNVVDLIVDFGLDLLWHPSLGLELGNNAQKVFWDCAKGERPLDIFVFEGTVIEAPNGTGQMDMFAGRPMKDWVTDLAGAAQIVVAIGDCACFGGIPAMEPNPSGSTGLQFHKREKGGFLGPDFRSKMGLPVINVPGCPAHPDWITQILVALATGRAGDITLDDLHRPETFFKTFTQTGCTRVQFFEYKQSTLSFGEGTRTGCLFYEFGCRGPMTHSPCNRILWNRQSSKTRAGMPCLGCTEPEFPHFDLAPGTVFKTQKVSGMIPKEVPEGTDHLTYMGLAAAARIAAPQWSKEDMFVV
T1 sequence (A0QUM7 2-516): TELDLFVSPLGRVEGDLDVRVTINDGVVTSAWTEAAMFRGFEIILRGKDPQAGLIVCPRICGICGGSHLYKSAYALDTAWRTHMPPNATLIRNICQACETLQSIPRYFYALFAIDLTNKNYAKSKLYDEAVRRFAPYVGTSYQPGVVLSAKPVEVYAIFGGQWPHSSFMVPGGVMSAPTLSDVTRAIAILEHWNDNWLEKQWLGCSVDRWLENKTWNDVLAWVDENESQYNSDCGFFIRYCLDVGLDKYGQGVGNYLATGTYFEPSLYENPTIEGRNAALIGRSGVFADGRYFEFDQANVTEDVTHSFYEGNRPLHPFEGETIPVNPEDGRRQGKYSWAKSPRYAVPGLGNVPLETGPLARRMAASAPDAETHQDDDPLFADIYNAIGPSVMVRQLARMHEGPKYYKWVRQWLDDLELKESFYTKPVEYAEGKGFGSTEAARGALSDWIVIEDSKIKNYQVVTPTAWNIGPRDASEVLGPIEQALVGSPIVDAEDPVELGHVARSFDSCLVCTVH
T1 sequence (A0QUM5 1-189 partner): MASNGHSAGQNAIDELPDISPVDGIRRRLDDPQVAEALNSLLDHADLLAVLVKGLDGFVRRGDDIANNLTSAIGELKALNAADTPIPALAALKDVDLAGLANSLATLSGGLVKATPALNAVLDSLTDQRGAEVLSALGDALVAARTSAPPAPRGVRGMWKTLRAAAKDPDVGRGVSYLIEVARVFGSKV

[1] = biological target: Huc protomer (HucSL heterodimer) (Mycobacterium smegmatis mc2155); test: cryo-EM structure; single-particle reconstruction of the purified Huc oligomer (2.19 Å overall) and of the individual HucS2L2 lobe (1.52 Å and 1.67 Å)
[2] = biological target: the molecule itself; test: as above

Molecule: CC1=CC(=O)c2ccccc2C1=O [menadione]
- H2 electrode and gas chromatography of H2 consumption (Huc; 200 µM menadione as electron acceptor): Huc displayed a much higher maximum velocity with menadione

Molecule: COc1cc(-c2ccc(-n3nc(-c4ccccc4)n[n+]3-c3ccc([N+](=O)[O-])cc3)c(OC)c2)ccc1-n1nc(-c2ccccc2)n[n+]1-c1ccc([N+](=O)[O-])cc1 [nitro blue tetrazolium]
- H2 electrode and gas chromatography of H2 consumption (Huc; 200 µM NBT as electron acceptor): using nitro blue tetrazolium (NBT) or the quinone analogue menadione as the electron acceptor

- stoichiometry N [1]: 2
Molecule: Huc protomer (HucSL heterodimer) (complex)

B1: HucM (MSMEG_2261), scaffold subunit of the Mycobacterium smegmatis hydrogenase Huc (natural protein, Mycobacterium smegmatis mc2155, UniProt A0QUM5 1-189, looked up)
chain: T1 sequence (A0QUM5 1-189 partner)
notes: HucM, uncharacterized protein MSMEG_2261 encoded directly upstream of hucS in the huc operon, Mycobacterium smegmatis mc2155; approximately 18 kDa; 188 amino acids printed (residues 80 to 189 are also printed); only residues 20-79 modelled in the cryo-EM map; source: M. smegmatis mc2155 PRC1 HucS-2×StrII, endogenous; in cell lysate and co-purified with HucS (StrepTrap, Superose 6)
- stoichiometry N [2]: 4
